ChEMBL document CHEMBL4725252, “Development of an efficient semisynthetic modification of FR901459 via a novel regioselective N, O-acyl migration” (Bioorg Med Chem Lett, 2020)
In brackets after ≈: the same amount, converted by molar mass. Square brackets hold non-standard residues; d marks the D form. Peptide text beside a SMILES is read from it. MeBmt = C/C=C/C[C@@H](C)[C@@H](O)[C@H](NC)C(=O)O; NMeL = CN[C@@H](CC(C)C)C(=O)O; NMeV = CN[C@H](C(=O)O)C(C)C; Sar = CNCC(=O)O

Tests used:
Hepatitis C virus [1] = test: Antiviral activity against HCV subgenomic replicon assessed as inhibition of replication by qRT-PCR analysis; type: functional, organism-based, Hepacivirus hominis
Hepatitis C virus [2] = test: Ratio of EC50 for FR901459 to EC50 for test compound for antiviral activity against HCV subgenomic replicon assessed as inhibition of replication by qRT-PCR analysis; type: functional, Hepacivirus hominis

EC50 (Hepatitis C virus [1]) [µg/mL]	Compound	Ratio EC50 (Hepatitis C virus [2])
0.096 (≈ 0.0788 µM)	C/C=C/C[C@@H](C)[C@@H](O)[C@H]1C(=O)N[C@@H]([C@@H](C)O)C(=O)N(C)CC(=O)N(C)[C@@H](CC(C)C)C(=O)N[C@@H](CC(C)C)C(=O)N(C)[C@@H](CC(C)C)C(=O)N[C@@H](C)C(=O)N[C@H](C)C(=O)N(C)[C@@H](CC(C)C)C(=O)N[C@@H](CC(C)C)C(=O)N(C)[C@@H](C(C)C)C(=O)N1C (cyclo(A[dA][NMeL]L[NMeV][MeBmt]T[Sar][NMeL]L[NMeL]))	–
0.038 (≈ 0.0308 µM)	C/C=C/C[C@@H](C)[C@@H](O)[C@H]1C(=O)N[C@@H]([C@@H](C)O)C(=O)N(C)[C@H](C)C(=O)N(C)[C@@H](CC(C)C)C(=O)N[C@@H](CC(C)C)C(=O)N(C)[C@@H](CC(C)C)C(=O)N[C@@H](C)C(=O)N[C@H](C)C(=O)N(C)[C@@H](CC(C)C)C(=O)N[C@@H](CC(C)C)C(=O)N(C)[C@@H](C(C)C)C(=O)N1C	2.5
